According to ChEMBL document CHEMBL1201862, “PubChem BioAssay data set” (2004):
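Five compound concentrations were applied to cells in 96-well plates for 48 hours; endpoints were derived by simple linear interpolation of the resulting dose-response curve. At the GI50, growth is halved.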 Active and inactive are the calls of the source. No stated cut-off is given here; in the data, active = GI50 up to about 1.1 µM and inactive = higher.

Key:
Assay in all cases: NCI tumour cell line growth inhibition, 48 h
HCC 2998 = tested on: HCC 2998
OVCAR-3 = tested on: OVCAR-3
CAKI-1 = tested on: CAKI-1
HT-29 = tested on: HT-29
OVCAR-4 = tested on: OVCAR-4
SK-MEL-5 = tested on: SK-MEL-5
ACHN = tested on: ACHN
SNB-19 = tested on: SNB-19
SK-MEL-2 = tested on: SK-MEL-2
COLO 205 = tested on: COLO 205
NCI-H460 = tested on: NCI-H460
K562 = tested on: K562
SF-539 = tested on: SF-539
NCI-H522 = tested on: NCI-H522
A498 = tested on: A498
HCT-116 = tested on: HCT-116
A549 = tested on: A549
MCF7 = tested on: MCF7
PC-3 = tested on: PC-3

| SMILES | GI50 (HCC 2998) | GI50 (OVCAR-3) | GI50 (CAKI-1) | GI50 (HT-29) | GI50 (OVCAR-4) | GI50 (SK-MEL-5) | GI50 (ACHN) | GI50 (SNB-19) | GI50 (SK-MEL-2) | GI50 (COLO 205) | GI50 (NCI-H460) | GI50 (K562) | GI50 (SF-539) | GI50 (NCI-H522) | GI50 (A498) | GI50 (HCT-116) | GI50 (A549) | GI50 (MCF7) | GI50 (PC-3) |
| --- | --- | --- | --- | --- | --- | --- | --- | --- | --- | --- | --- | --- | --- | --- | --- | --- | --- | --- | --- |
| O=C1CC(=O)N(CCc2ccccc2)S(=O)(=O)N1CCc1ccccc1 | 86.9 µM (inactive) | 16.9 µM (inactive) | 22.2 µM (inactive) | 23 µM (inactive) | 19.8 µM (inactive) | 18.7 µM (inactive) | 35.9 µM (inactive) | 29.2 µM (inactive) | 22.6 µM (inactive) | 22.4 µM (inactive) | 27.7 µM (inactive) | 23.7 µM (inactive) | 22.6 µM (inactive) | 19.5 µM (inactive) | 16.6 µM (inactive) | 28.7 µM (inactive) | 24.4 µM (inactive) |  |  |
| CCOC(=O)C(Oc1ccc(OC)c2c1C(=O)CCC2)c1ccccc1 (stereo not drawn) | > 100 µM (inactive) | > 100 µM (inactive) | > 100 µM (inactive) | 53.1 µM (inactive) | 48.9 µM (inactive) | 43.2 µM (inactive) | > 100 µM (inactive) | > 100 µM (inactive) | > 100 µM (inactive) | > 100 µM (inactive) | > 100 µM (inactive) | 49.2 µM (inactive) | > 100 µM (inactive) | 94 µM (inactive) | > 100 µM (inactive) | 84.7 µM (inactive) | > 100 µM (inactive) |  |  |
| NNC(=O)/C(=C/c1ccc(Cl)cc1Cl)NC(=O)c1ccccc1 | > 100 µM (inactive) | > 100 µM (inactive) | > 100 µM (inactive) | > 100 µM (inactive) | > 100 µM (inactive) | > 100 µM (inactive) | > 100 µM (inactive) | > 100 µM (inactive) | > 100 µM (inactive) | > 100 µM (inactive) | > 100 µM (inactive) | 71.4 µM (inactive) | > 100 µM (inactive) | > 100 µM (inactive) | > 100 µM (inactive) | > 100 µM (inactive) | > 100 µM (inactive) |  |  |
| CCCCC(C)C(OC(=O)CC(CC(=O)O)C(=O)O)C(CC(C)CC(O)CCCCC(O)CC(O)C(C)N)OC(=O)CC(CC(=O)O)C(=O)O (stereo not drawn) | > 100 µM (inactive) | > 100 µM (inactive) | > 100 µM (inactive) | > 100 µM (inactive) | > 100 µM (inactive) | > 100 µM (inactive) | > 100 µM (inactive) | > 100 µM (inactive) | > 100 µM (inactive) | > 100 µM (inactive) | > 100 µM (inactive) | > 100 µM (inactive) | > 100 µM (inactive) | > 100 µM (inactive) | > 100 µM (inactive) | > 100 µM (inactive) | > 100 µM (inactive) |  |  |
| C=C(C)C1CC=C(C)C(O)([C@@]2(O)C[C@H](C(=C)C)CC=C2C)C1 (stereo partly drawn) | 16.4 µM (inactive) | 13.4 µM (inactive) | 13.5 µM (inactive) | 17.3 µM (inactive) | 19 µM (inactive) | 14.8 µM (inactive) | 20.3 µM (inactive) | 32.1 µM (inactive) | 17.4 µM (inactive) |  | 18 µM (inactive) | 22.2 µM (inactive) | 19.8 µM (inactive) | 12.6 µM (inactive) | 23.8 µM (inactive) | 17.6 µM (inactive) | 29.7 µM (inactive) |  |  |
| O=c1[nH]c(=O)n(COCCO)c2ccc(Br)cc12 |  | > 100 µM (inactive) | > 100 µM (inactive) | > 100 µM (inactive) | > 100 µM (inactive) | > 100 µM (inactive) | > 100 µM (inactive) | 50.6 µM (inactive) | > 100 µM (inactive) | > 100 µM (inactive) | > 100 µM (inactive) | > 100 µM (inactive) | > 100 µM (inactive) |  | > 100 µM (inactive) | > 100 µM (inactive) | > 100 µM (inactive) | > 100 µM (inactive) |  |
| CCN(CC)CCNC(=O)c1cc2cc(NC(=O)c3cc4cc([N+](=O)[O-])ccc4[nH]3)ccc2[nH]1 | 11.2 µM (inactive) | > 40.6 µM (inactive) | > 35.6 µM (inactive) | 2.93 µM (inactive) | > 50.4 µM (inactive) | 3.85 µM (inactive) | 35.1 µM (inactive) | 49.8 µM (inactive) | > 52.6 µM (inactive) | 5.68 µM (inactive) | 2.92 µM (inactive) | 1.61 µM (inactive) | 6.43 µM (inactive) | 3.09 µM (inactive) | 27 µM (inactive) | 2.85 µM (inactive) | 19.3 µM (inactive) | 2.39 µM (inactive) | > 39 µM (inactive) |
| N#CCC(=O)NC1C2CC3CC(C2)CC1C3 (stereo not drawn) | 18 µM (inactive) | 18.1 µM (inactive) | 18.6 µM (inactive) | 18.5 µM (inactive) | 21.2 µM (inactive) | 14.6 µM (inactive) | 19.1 µM (inactive) | 17.3 µM (inactive) | 19.5 µM (inactive) | 19.3 µM (inactive) | 16.7 µM (inactive) | 26.5 µM (inactive) | 18 µM (inactive) | 17.1 µM (inactive) | 16.5 µM (inactive) | 15.2 µM (inactive) | 34 µM (inactive) |  |  |
| CN1C(=O)CC(c2cccc(C3CC(=O)N(C)C3=O)n2)C1=O (stereo not drawn) | > 100 µM (inactive) | > 100 µM (inactive) | > 100 µM (inactive) | > 100 µM (inactive) | > 100 µM (inactive) | > 100 µM (inactive) | > 100 µM (inactive) | > 100 µM (inactive) | > 100 µM (inactive) | > 100 µM (inactive) | > 100 µM (inactive) | > 100 µM (inactive) | > 100 µM (inactive) | > 100 µM (inactive) | > 100 µM (inactive) | > 100 µM (inactive) | > 100 µM (inactive) |  |  |
| CC(=O)OCC1OC(n2c(-c3ccccc3)c(C(C)=O)c(-c3ccc(Cl)cc3)c(C#N)c2=S)C(OC(C)=O)C(OC(C)=O)C1OC(C)=O (stereo not drawn) | > 100 µM (inactive) | > 100 µM (inactive) | 99.8 µM (inactive) | > 100 µM (inactive) | 83.8 µM (inactive) | 21.2 µM (inactive) | > 100 µM (inactive) | > 100 µM (inactive) | < 0.01 µM (active) | > 100 µM (inactive) | 26.8 µM (inactive) | > 100 µM (inactive) | > 100 µM (inactive) | > 100 µM (inactive) | > 100 µM (inactive) | 83.2 µM (inactive) | > 100 µM (inactive) | > 100 µM (inactive) | 1.93 µM (inactive) |
| [O-][Cl+3]([O-])([O-])[O-].c1ccc(-c2csc3c4ccccc4c4ccccc4[n+]23)cc1 | 1.54 µM (inactive) | 0.897 µM (active) | 7.5 µM (inactive) | 4.15 µM (inactive) | 3.96 µM (inactive) | 0.971 µM (active) | 10.2 µM (inactive) | 2.15 µM (inactive) | 2.54 µM (inactive) | 2.25 µM (inactive) | 2.51 µM (inactive) | 0.708 µM (active) | 3.25 µM (inactive) | 1.67 µM (inactive) | 14.8 µM (inactive) | 2.32 µM (inactive) | 2.17 µM (inactive) |  |  |
| Nc1c(-c2ccc(-c3c(N)[n+]([O-])c4ccccc4[n+]3[O-])cc2)[n+]([O-])c2ccccc2[n+]1[O-] | 15.1 µM (inactive) | 15.7 µM (inactive) | 6.65 µM (inactive) | 12.1 µM (inactive) | 17.7 µM (inactive) | 10.1 µM (inactive) | 16.2 µM (inactive) | 13.7 µM (inactive) | 13.7 µM (inactive) | 10.1 µM (inactive) | 14.3 µM (inactive) | 15.7 µM (inactive) | 4.92 µM (inactive) | 1.6 µM (inactive) | 18.3 µM (inactive) |  | 20.9 µM (inactive) |  |  |
| COc1ccc(-n2c(=O)n(-c3ccccc3)c(=O)n2-c2ccc(OC)cc2)cc1 | > 100 µM (inactive) | > 100 µM (inactive) | 1.78 µM (inactive) |  | > 100 µM (inactive) | > 100 µM (inactive) | > 100 µM (inactive) | > 100 µM (inactive) | > 100 µM (inactive) | > 100 µM (inactive) |  | 80.4 µM (inactive) | > 100 µM (inactive) | > 100 µM (inactive) | > 100 µM (inactive) | > 100 µM (inactive) | > 100 µM (inactive) | > 100 µM (inactive) | > 100 µM (inactive) |
| CC(=O)NC(CCCCNC(=O)N(C)N=O)C(=O)NCc1ccccc1 (stereo not drawn) | > 100 µM (inactive) | > 100 µM (inactive) | > 100 µM (inactive) | > 100 µM (inactive) | > 100 µM (inactive) | > 100 µM (inactive) | > 100 µM (inactive) | > 100 µM (inactive) | > 100 µM (inactive) | > 100 µM (inactive) | 79.6 µM (inactive) | > 100 µM (inactive) | > 100 µM (inactive) | > 100 µM (inactive) | > 100 µM (inactive) | > 100 µM (inactive) | > 100 µM (inactive) |  |  |
| CC(CC(C)[C@H]1CCC2[C@H]3C(CC(=O)[C@@]21C)[C@@]1(C)CCC(O)C[C@H]1C[C@@H]3O)C(=O)O (stereo partly drawn) | > 100 µM (inactive) |  | > 100 µM (inactive) | > 100 µM (inactive) | > 100 µM (inactive) |  | > 100 µM (inactive) | > 100 µM (inactive) | > 100 µM (inactive) | > 100 µM (inactive) | 61.8 µM (inactive) | 34.7 µM (inactive) | > 100 µM (inactive) | > 100 µM (inactive) | > 100 µM (inactive) | > 100 µM (inactive) | > 100 µM (inactive) | 92.3 µM (inactive) | > 100 µM (inactive) |
| O=c1ncccn1[C@@H]1O[C@H](CO)[C@H](O)C1O (stereo partly drawn) | 40.9 µM (inactive) | > 100 µM (inactive) | 38.8 µM (inactive) | > 95.1 µM (inactive) | > 100 µM (inactive) | > 100 µM (inactive) | > 100 µM (inactive) | > 100 µM (inactive) | > 73.5 µM (inactive) | > 88.7 µM (inactive) | 47.9 µM (inactive) | 52.4 µM (inactive) | > 75.3 µM (inactive) | > 88.5 µM (inactive) | > 100 µM (inactive) | > 70.8 µM (inactive) | > 89.5 µM (inactive) |  |  |
